Reference: US20140296174A1, “SILK-BASED MULTIFUNCTIONAL BIOMEDICAL PLATFORM” (TUFTS UNIVERSITY, priority 2011, published 2014)

Experiments:
[1] = silk microspheres, depending on processing pH; cited from earlier work
[2] = Binding of doxorubicin to silk carrier; assay type: physicochemical; conditions: typically
Source text: In addition to having properties which make silk well suited to drug delivery in general, silk is uniquely suited to deliver doxorubicin, as we have observed that doxorubicin interacts strongly with the silk. […] The interaction between the silk and the doxorubicin also results in a large fraction (typically more than 50%) of the total doxorubicin dose is bound to the carrier. In some embodiments, therefore, the carrier may be proteolytically degraded to enhance release the bound doxorubicin. This provide an opportunity to design protease-triggered drug release systems. […] Degradation-mediated drug release from silk biomaterials can be used to design systems that provide drug locally proportionately to disease progression: aggressive disease/increased proteolysis would degrade the silk carrier more rapidly, releasing larger doses of drug than in healthy tissue.

[3] = Doxorubicin storage stability in silk films/MPAs versus solution (fluorescence); assay type: physicochemical; conditions: 3 weeks at −20° C. and 60° C.; excitation 430, emission 550
Procedure: Silk films for degradation and stability studies were prepared by casting of 6% (w/v) silk solution containing 1.0 mg/mL doxorubicin on a patterned mold. After drying at ambient conditions for 48 hours the samples were removed and vapor annealed for 24 hours as previously described (Jin et al., 2005).
After 3 weeks, the silk films were degraded with 10 mg/mL proteinase k for 6 hours, and doxorubicin concentration for all samples was determined by comparing fluorescence to a standard curve of known concentrations (excitation=430, emission=550).
The silk DxR-MPA was evaluated at different time points for optical performance and drug content eluted by measuring absorbance at 495 nm and comparing measured values to a standard curve (FIGS. 11A & 33). […] The doxorubicin-loaded silk-MPAs were stored at −20° C.

fraction of the total doxorubicin dose bound to the carrier [2]	doxorubicin fluorescence after storage [3]	Structure (SMILES)	fraction released [1]
		CN(C)c1ccc(C(=C2C=CC(=[N+](C)C)C=C2)c2ccc(N(C)C)cc2)cc1 [crystal violet]	25-60%
more than 50%	decreases	COc1cccc2c1C(=O)c1c(O)c3c(c(O)c1C2=O)C[C@@](O)(C(=O)CO)C[C@@H]3O[C@H]1C[C@H](N)[C@H](O)[C@H](C)O1 [doxorubicin]	
